# Experimental data published in ChEMBL document CHEMBL1128101, “Cycloproctolin and [-Methyl-l-Tyr]-proctolin are potent antagonists of proctolin-induced inositol phosphate production in locust foregut homogenates” (1995).
# Where a SMILES comes first, the peptide text is derived from it.
# Key:
# Assay type in all cases: functional
# Schistocerca gregaria [1] = assay: Tested for dose dependent release of inositol phosphate (InsP3) at 0.5 uM
# Schistocerca gregaria [2] = assay: Tested for dose dependent release of inositol phosphate (InsP3) at 10 nM
# Schistocerca gregaria [3] = assay: Tested for dose dependent release of inositol phosphate (InsP4) at 10 nM
# Schistocerca gregaria [4] = assay: Tested for dose dependent release of inositol phosphate (InsP4) at 0.5 uM
# Schistocerca gregaria [5] = assay: Tested for dose dependent release of inositol phosphate (InsP3) at 1 uM
# Schistocerca gregaria [6] = assay: Tested for dose dependent release of inositol phosphate (InsP4) at 1 uM
# Schistocerca gregaria [7] = assay: Tested for dose dependent release of inositol phosphate (InsP4) at 1 uM in the presence of compound 1 (0.5 uM)
# Schistocerca gregaria [8] = assay: Tested for dose dependent release of inositol phosphate (InsP3) at 1 uM in the presence of compound 1 (0.5 uM)
Compound,Increase in DPM (Schistocerca gregaria [1]),Increase in DPM (Schistocerca gregaria [2]),Increase in DPM (Schistocerca gregaria [3]),Increase in DPM (Schistocerca gregaria [4]),Increase in DPM (Schistocerca gregaria [5]),Increase in DPM (Schistocerca gregaria [6]),Increase in DPM (Schistocerca gregaria [7]),Increase in DPM (Schistocerca gregaria [8])
H-RYLPT-OH,3400 (mg of protein)-1,1250 (mg of protein)-1,1100 (mg of protein)-1,1600 (mg of protein)-1,–,–,–,–
"CC(C)C[C@@H]1NC(=O)[C@H](Cc2ccc(O)cc2)NC(=O)[C@H](CCCN=C(N)N)NC(=O)[C@H]([C@@H](C)O)NC(=O)[C@@H]2CCCN2C1=O (HELM PEPTIDE1{L.P.T.R.Y}$PEPTIDE1,PEPTIDE1,1:R1-5:R2$$$V2.0)",–,1200 (mg of protein)-1,750 (mg of protein)-1,–,500 (mg of protein)-1,300 (mg of protein)-1,–,–
CC(C)C[C@@H](NC(=O)[C@@](C)(Cc1ccc(O)cc1)NC(=O)[C@@H](N)CCCN=C(N)N)C(=O)N1CCC[C@@H]1C(=O)N[C@H](C(=O)O)[C@H](C)O,–,500 (mg of protein)-1,250 (mg of protein)-1,–,400 (mg of protein)-1,250 (mg of protein)-1,–,–
CC(C)C[C@H](NC(=O)[C@H](Cc1ccc(O)cc1)N(C)C(=O)[C@@H](N)CCCN=C(N)N)C(=O)N1CCC[C@H]1C(=O)N[C@H](C(=O)O)[C@@H](C)O (HELM PEPTIDE1{R.[meY].L.P.T}$$$$V2.0),–,–,–,–,–,–,1500 (mg of protein)-1,3600 (mg of protein)-1
